Results published in patent publication US6528251B2, “Method of managing the chemotherapy of patients who are HIV positive based on the phenotypic drug sensitivity of human HIV strains” (Virco N.V., priority 1996, dated 2003).
Where two headings read alike, the source gives them in different places.

Experiments:
Type in all cases: cell-based, HIV-1
[1] = tested on: Recombinant wild type HIV strain recIIIB; experiment: Antiviral MT4/MTT assay with reference virus recIIIB; conditions: read-out: Anti-HIV-1 activity IC50 (μM) recIIIB ref (2)
[2] = tested on: recombinant virus from patient viral RNA (Example 5, 3TC resistant HIV strains); experiment: Recombinant virus assay (MT4/MTT), patient of Example 5 (AZT, then AZT+3TC therapy); conditions: for IC50: Human immunodeficiency virus 1, Table 1, Example 5 patient virus
Experimental: (§1) RNA was isolated from 100 μl of plasma according to the method described by Boom, R. et al. (1990, supra), and was reverse transcribed with the GeneAmp reverse transcriptase kit (Perkin Elmer) as described by the manufacturer and using an HIV-1 specific downstream primer (OUT3: 5′-CATTGCTCTCCAATTACTGTGATATTTCTCATC-3′; SEQ ID NO: 1). PCR on reverse transcribed RNA was performed with inner and outer primers as described by Kellam, P. and Larder, B. A. (1994, supra). After chloroform extraction and centrifugation on Centricon 100 columns or centrifugation on anion-exchange spin columns (Quiagen), the isolated PCR product was ready for use in the transfection reactions.
(§2) MT4 cells were subcultured at a density of 250,000 cells/ml before transfection (exponential growth phase). Cells were pelleted and resuspended in phosphate buffered saline (PBS) at a concentration of […]. A 0.8 ml portion (2.5 10E6 cells/ml) was used for each transfection. Transfection was performed with the Bio-Rad Gene pulser making use of 0.4 cm electrode cuvettes. Cells were electroporated in the presence of […] of linearised pHIVΔRT plasmid and approximately 5 μg of RT PCR product at 250SF and 300 V, followed by a 30-min incubation at room temperature. Subsequently, 10 ml of fresh culture medium was added to the cell suspension and incubation was performed at 37° C. in a humidified atmosphere of 5% CO2.
(§3) During 7 to 10 days following the transfection, cells were monitored for the appearance of cytopathogenic effect (CPE). In the absence thereof, cells were subcultured in different flasks. Subsequently, culture supernatants of transfected cells were used to create a stock of recombinant virus and stored in 1.5 ml aliquots at −70° C.
(§4) After titration of the new viruses, the stocks were used for antiviral experiments in the presence of serial dilutions of different HIV inhibitors. Titres of the harvested supematants were determined by limited serial dilution titration of virus in MT4 cells.
(§5) Viruses with a useful titre were used in antiviral experiments. For this purpose, 96-well microtitre plates were filled with 100μl of complete culture medium. Subsequently, stock solutions of compounds were added in 25 μl volumes to series of duplicate wells. HIV- and mock-infected cell samples were included for each drug (or drug combination). Exponentially growing MT4 cells were then transferred to the microtitre plates at a density of 150,000 cells/ml. The cell cultures were then incubated at 37° C. in a humidified atmosphere of 5% CO2. Five days after infection, the viability of the mock- and HIV-infected cells was examined spectrophotometrically by the M1T method (Pauwels, R. et al. J. Virol. Meth. (1988), 20: 309-321) as described in Section 6 below.
(§6) To each well of the microtiter plates, 20 μl of a solution of MTT (7.5 mg/ml in PBS) was added. The plates were further incubated at 37° C. for 1 h. Then, 150 μl of medium was removed without disturbing the MT4 cell clusters containing the formazan crystals. Solubilization of the formazan crystals was achieved by adding 100 μl 5% Triton X-100 in acidified isopropanol (5 ml concentrated HCl per liter solvent). Complete dissolution of the formazan crystals was obtained after the plates had been placed on a plate shaker for 10 min. Finally the absorbances were read at two wavelengths (540 and 690 nm). From these optical density (OD) data, 50% inhibitory (IC50) and 50% cytotoxic (CC50) concentrations were derived.
An HIV infected patient who received AZT from December 1989 until an undocumented later date, and switched to a combined chemotherapy of AZT+3TC (1:1) from February 1994 until October 1995 donated plasma whose susceptibility to a number of RT inhibitors was determined according to the above described protocol of Example 1. Recombinant wild type HIV strain recIIIB was used in said protocol as a reference HIV virus.

[3] = tested on: recombinant virus from patient viral RNA (Example 6, drug-naive patient); experiment: Recombinant virus assay (MT4/MTT), drug-naive patient of Example 6; conditions: for IC50: Human immunodeficiency virus 1, Table 2, Example 6 patient virus
Experimental: as §1, §2, §3, §4, §5, §6
A drug-naive HIV infected patient donated plasma whose susceptibility to a number of RT inhibitors was determined according to the above described protocol of Example 1. Recombinant wild type HIV strain recIIIB was used in said protocol as a reference HIV virus.

[4] = tested on: recombinant virus from patient viral RNA (Example 7, drug-naive patient); experiment: Recombinant virus assay (MT4/MTT), drug-naive patient of Example 7; conditions: for IC50: Human immunodeficiency virus 1, Table 3, Example 7 patient virus
Experimental: as §1, §2, §3, §4, §5, §6
A drug-naive HIV-infected patient donated plasma whose susceptibility to a number of RT inhibitors was determined according to the protocol set out in Example 1. Recombinant wild type HIV strain recIIIB was used as a reference HIV virus.

[5] = tested on: recombinant virus from patient viral RNA (Example 8); experiment: Recombinant virus assay (MT4/MTT), patient of Example 8 (therapy history AZT, 3TC and loviride); conditions: for IC50: Human immunodeficiency virus 1, Table 4, Example 8 patient virus
Experimental: as §1, §2, §3, §4, §5, §6
(§7) An HIV-infected patient with a therapy history including AZT, 3TC and loviride donated plasma whose susceptibility to a number of RT inhibitors was determined according to the protocol set out in Example 1. Recombinant wild type HIV strain recIIIB was used as a reference HIV virus.

[6] = tested on: recombinant virus from patient viral RNA (Example 9); experiment: Recombinant virus assay (MT4/MTT), patient of Example 9 (multiple nucleoside analogue RT-inhibitors); conditions: for IC50: Human immunodeficiency virus 1, Table 5, Example 9 patient virus
Experimental: as §1, §2, §3, §4, §5, §6
as §7, with “multiple nucleoside analogue RT-inhibitors” for “AZT, 3TC and loviride”

[7] = MT4 cells, read-out: Anti-HIV-1 activity IC50 (μM) Exp. 1
[8] = MT4 cells, read-out: Anti-HIV-1 activity IC50 (μM) Exp. 2
[9] = mean of Exp. 1 and 2, read-out: Anti-HIV-1 activity IC50 (μM) Mean (1)
[10] = mean, read-out: Anti-HIV-1 activity IC50 (μM) Mean (1)

Question: With `O=c1[nH]cnc2c1ncn2[C@H]1CC[C@@H](CO)O1` [ddI, didanosinen] as the compound, how does the IC50 ([1]; Human immunodeficiency virus 1, Table 1, reference run of Example 5) read?
Answer: 2.83 µM

Question: And the IC50 ([1]; Human immunodeficiency virus 1, Table 2, reference run of Example 6)?
Answer: 8.58 µM

Question: And the IC50 ([1]; Human immunodeficiency virus 1, Table 3, reference run of Example 7)?
Answer: 0.648 µM

Question: What about the IC50 ([1]; Human immunodeficiency virus 1, Table 4, reference run of Example 8) of the same compound?
Answer: 1.59 µM

Question: And the IC50 ([1]; Human immunodeficiency virus 1, Table 5, reference run of Example 9)?
Answer: 4.76 µM

Question: And the IC50 [2, 7]?
Answer: 2 µM

Question: And the IC50 [2, 8]?
Answer: 0.8 µM

Question: What about the IC50 [2, 9] of the same compound?
Answer: 1.4 µM

Question: And the “ratio (1)/(2)” value ([2]; Table 1, patient mean IC50 / recIIIB IC50, Example 5)?
Answer: 0.5

Question: What about the IC50 [3, 7] of the same compound?
Answer: 3.07 µM

Question: What about the IC50 [3, 8] of the same compound?
Answer: 4.47 µM

Question: And the IC50 [3, 9]?
Answer: 3.77 µM

Question: What about the “ratio (1)/(2)” value ([3]; Table 2, patient mean IC50 / recIIIB IC50, Example 6) of the same compound?
Answer: 0.4

Question: And the IC50 [4, 7]?
Answer: 0.475 µM

Question: What about the IC50 [4, 8] of the same compound?
Answer: 0.429 µM

Question: What about the IC50 [4, 10] of the same compound?
Answer: 0.452 µM

Question: And the “ratio (1)/(2)” value ([4]; Table 3, patient mean IC50 / recIIIB IC50, Example 7)?
Answer: 0.7

Question: And the IC50 [5, 7]?
Answer: 26.9 µM

Question: And the IC50 [5, 8]?
Answer: 15.4 µM

Question: What about the IC50 [5, 10] of the same compound?
Answer: 21.1 µM

Question: And the “ratio (1)/(2)” value ([5]; Table 4, patient mean IC50 / recIIIB IC50, Example 8)?
Answer: 13

Question: And the IC50 [6, 7]?
Answer: > 100 µM

Question: And the IC50 [6, 8]?
Answer: > 100 µM

Question: What about the IC50 [6, 10] of the same compound?
Answer: > 100 µM

Question: And the “ratio (1)/(2)” value ([6]; Table 5, patient mean IC50 / recIIIB IC50, Example 9)?
Answer: >21
